{
  "source": "paper PMC12285759",
  "about": "(RSC Advances, 2025)",
  "test_system": "Vero Cells",
  "assay": "MTT assay, cytotoxicity of the test compounds",
  "type": "cell-based",
  "settings": "not tested for inhibitory effect",
  "data": [
    {"molecule": "O=c1ccn([C@@H]2O[C@H](COCc3ccccc3)[C@H](OCc3ccccc3)[C@H](OCc3ccccc3)[C@H]2I)c(=O)[nH]1", "note": "[3h]", "values": [
      {"measurement": "cytotoxicity (in words)", "result": "cytotoxic"}
    ]}
  ]
}
